Test system: Retina Pigment Epithelium Cell
Assay: Photooxidative damage by all-trans-retinal and 365 nm light, protection by sulforaphane (cell survival)
Format: cell-based, human
Protocol: There is accumulating evidence that chronic exposure to sunlight plays a role in some degenerative diseases, for instance, age-related macular degeneration (AMD). We have, therefore, carried out an experiment of protection of human RPE cells against photooxidative damage mediated by all-trans-retinal, which exists in human retina and is a critical component of the visual cycle.
Cell viability was determined by spectroscopic measurement of the reduction of MTT (Carmichael, J., DeGraff, W. G., Gazdar, A. F., Minna, J. D. & Mitchell, J. B. (1987) Cancer Res. 47, 936-942). The culture media were discarded after the designated incubation periods, the cells were washed three times with PBS by use of a microtiter plate washer (Ultrawash Plus, Dynex Technologies, Chantilly, Va.). Each well then received 150 μl of an MTT solution (0.5 mg/ml) in serum-free medium. The plates were incubated for 2 h at 37° C., the MTT solution was discarded, 100 μl of DMSO were added to each well, and the plates were shaken at 200 rpm on an orbital shaker for 5 min. The absorbances of the wells were determined at 555 nm with a microtiter plate reader (Spectra Max Plus, Molecular Devices, Sunnyvale, Calif.). The absorbance of reduced MIT was then compared at each inducer and oxidant concentration to that of untreated control cells that received only the vehicle in which sulforaphane (DMSO) and menadione (DMSO or PBS) were dissolved. In each experiment three identical 96-well plates were used and the means of the absorbance values, the standard deviations of these means, and their coefficients of variation were calculated.
To examine the protective effect of sulforaphane against photooxidative damage mediated by all-trans-retinal and light exposure, the cells were treated with 0-100 μM of all-trans-retinal for 2 hours and light exposure at 365 nm for 20 min after incubation with 0-5 μM of sulforaphane for 24 hours.

Q: What does the source list for `C[S+]([O-])CCCCN=C=S` (stereo not drawn) [Sulforaphane]?
A: Survival (365 nm light, all-trans-retinal 0 μM, sulforaphane 1.25 μM 24 h): 100.0%; Survival (365 nm light, all-trans-retinal 0 μM, sulforaphane 2.50 μM 24 h): 100.6%; Survival (365 nm light, all-trans-retinal 0 μM, sulforaphane 5.00 μM 24 h): 100.4%; Survival (365 nm light, all-trans-retinal 12.5 μM, sulforaphane 1.25 μM 24 h): 95.4%; Survival (365 nm light, all-trans-retinal 12.5 μM, sulforaphane 2.50 μM 24 h): 96.5%; Survival (365 nm light, all-trans-retinal 12.5 μM, sulforaphane 5.00 μM 24 h): 103.4%; Survival (365 nm light, all-trans-retinal 25 μM, sulforaphane 1.25 μM 24 h): 54.4%; Survival (365 nm light, all-trans-retinal 25 μM, sulforaphane 2.50 μM 24 h): 63.8%; Survival (365 nm light, all-trans-retinal 25 μM, sulforaphane 5.00 μM 24 h): 72.2%; Survival (365 nm light, all-trans-retinal 50 μM, sulforaphane 1.25 μM 24 h): 11.7%; Survival (365 nm light, all-trans-retinal 50 μM, sulforaphane 2.50 μM 24 h): 15.2%; Survival (365 nm light, all-trans-retinal 50 μM, sulforaphane 5.00 μM 24 h): 27.4%; Survival (365 nm light, all-trans-retinal 100 μM, sulforaphane 1.25 μM 24 h): 3.4%; Survival (365 nm light, all-trans-retinal 100 μM, sulforaphane 2.50 μM 24 h): 5.2%; Survival (365 nm light, all-trans-retinal 100 μM, sulforaphane 5.00 μM 24 h): 8.2%; Survival (365 nm light, column Control, sulforaphane 1.25 μM 24 h): 100.7%; Survival (365 nm light, column Control, sulforaphane 2.50 μM 24 h): 97.4%; Survival (365 nm light, column Control, sulforaphane 5.00 μM 24 h): 101.4%; Survival (in dark, all-trans-retinal 0 μM, sulforaphane 1.25 μM 24 h): 96.6%; Survival (in dark, all-trans-retinal 0 μM, sulforaphane 2.50 μM 24 h): 99.4%; Survival (in dark, all-trans-retinal 0 μM, sulforaphane 5.00 μM 24 h): 103.1%; Survival (in dark, all-trans-retinal 12.5 μM, sulforaphane 1.25 μM 24 h): 96.3%; Survival (in dark, all-trans-retinal 12.5 μM, sulforaphane 2.50 μM 24 h): 101.5%; Survival (in dark, all-trans-retinal 12.5 μM, sulforaphane 5.00 μM 24 h): 104.6%; Survival (in dark, all-trans-retinal 25 μM, sulforaphane 1.25 μM 24 h): 97.7%; Survival (in dark, all-trans-retinal 25 μM, sulforaphane 2.50 μM 24 h): 98.3%; Survival (in dark, all-trans-retinal 25 μM, sulforaphane 5.00 μM 24 h): 104.8%; Survival (in dark, all-trans-retinal 50 μM, sulforaphane 1.25 μM 24 h): 98.4%; Survival (in dark, all-trans-retinal 50 μM, sulforaphane 2.50 μM 24 h): 99.9%; Survival (in dark, all-trans-retinal 50 μM, sulforaphane 5.00 μM 24 h): 106.8%; Survival (in dark, all-trans-retinal 100 μM, sulforaphane 1.25 μM 24 h): 74.7%; Survival (in dark, all-trans-retinal 100 μM, sulforaphane 2.50 μM 24 h): 75.6%; Survival (in dark, all-trans-retinal 100 μM, sulforaphane 5.00 μM 24 h): 84.6%; Survival (in dark, column Control, sulforaphane 1.25 μM 24 h): 96.7%; Survival (in dark, column Control, sulforaphane 2.50 μM 24 h): 99.5%; Survival (in dark, column Control, sulforaphane 5.00 μM 24 h): 105.6%

From patent US8709406B2, “Prevention and treatment of oxidative stress disorders by gluthathione and phase II detoxification enzymes” (Brassica Foundation for ChemoProtection Research, priority 2001, dated 2014)
